Source: US20030186434A1, “Method of forming vertebrate pancreas in vitro” (priority 2002, published 2003)

Test system: blastopore upper lip of early gastrula of a Xenopus
Experiment: Tissue differentiation of blastopore upper lip treated with retinoic acid for three hours, light microscopy
Details: treated 3 hours, cultured 10 days

`CC1=C(/C=C/C(C)=C/C=C/C(C)=C/C(=O)O)C(C)(C)CCC1` [Retinoic acid, retinoic acid] was tested, and the “Atypical epidermis differentiated, specimens (%)” value (10^−3 M, 12 specimens) was 0 (0), the “Cartilage differentiated, specimens (%)” value (10^−3 M, 12 specimens) was 0 (0) and the “Cement gland differentiated, specimens (%)” value (10^−3 M, 12 specimens) was 0 (0). For the same compound, the “Coelomic epithelium differentiated, specimens (%)” value (10^−3 M, 12 specimens) was 6 (50), the “Ear vesicle differentiated, specimens (%)” value (10^−3 M, 12 specimens) was 0 (0) and the “Epidermis differentiated, specimens (%)” value (10^−3 M, 12 specimens) was 10 (83). For the same compound, the “Eye or its fragments differentiated, specimens (%)” value (10^−3 M, 12 specimens) was 0 (0), the “Gastric gland differentiated, specimens (%)” value (10^−3 M, 12 specimens) was 0 (0) and the “Hemocyte differentiated, specimens (%)” value (10^−3 M, 12 specimens) was 0 (0). The “Intestinal epithelium differentiated, specimens (%)” value (10^−3 M, 12 specimens) was 12 (100), the “Mesenchyme differentiated, specimens (%)” value (10^−3 M, 12 specimens) was 12 (100) and the “Muscle differentiated, specimens (%)” value (10^−3 M, 12 specimens) was 0 (0). The “Neural tissue differentiated, specimens (%)” value (10^−3 M, 12 specimens) was 0 (0), the “Notochord differentiated, specimens (%)” value (10^−3 M, 12 specimens) was 11 (92) and the “Pancreas differentiated, specimens (%)” value (10^−3 M, 12 specimens) was 11 (92). For the same compound, the “Pharyngeal epithelium differentiated, specimens (%)” value (10^−3 M, 12 specimens) was 10 (83), the “Pronephros differentiated, specimens (%)” value (10^−3 M, 12 specimens) was 0 (0) and the “Yolk-rich cell differentiated, specimens (%)” value (10^−3 M, 12 specimens) was 11 (92). For the same compound, the “Atypical epidermis differentiated, specimens (%)” value (10^−4 M, 35 specimens) was 0 (0), the “Cartilage differentiated, specimens (%)” value (10^−4 M, 35 specimens) was 0 (0) and the “Cement gland differentiated, specimens (%)” value (10^−4 M, 35 specimens) was 0 (0). For the same compound, the “Coelomic epithelium differentiated, specimens (%)” value (10^−4 M, 35 specimens) was 5 (14), the “Ear vesicle differentiated, specimens (%)” value (10^−4 M, 35 specimens) was 0 (0) and the “Epidermis differentiated, specimens (%)” value (10^−4 M, 35 specimens) was 8 (23). The “Eye or its fragments differentiated, specimens (%)” value (10^−4 M, 35 specimens) was 0 (0), the “Gastric gland differentiated, specimens (%)” value (10^−4 M, 35 specimens) was 0 (0) and the “Hemocyte differentiated, specimens (%)” value (10^−4 M, 35 specimens) was 0 (0). The “Intestinal epithelium differentiated, specimens (%)” value (10^−4 M, 35 specimens) was 34 (97), the “Mesenchyme differentiated, specimens (%)” value (10^−4 M, 35 specimens) was 32 (91) and the “Muscle differentiated, specimens (%)” value (10^−4 M, 35 specimens) was 7 (20). The “Neural tissue differentiated, specimens (%)” value (10^−4 M, 35 specimens) was 0 (0), the “Notochord differentiated, specimens (%)” value (10^−4 M, 35 specimens) was 33 (94) and the “Pancreas differentiated, specimens (%)” value (10^−4 M, 35 specimens) was 25 (71). The “Pharyngeal epithelium differentiated, specimens (%)” value (10^−4 M, 35 specimens) was 21 (60), the “Pronephros differentiated, specimens (%)” value (10^−4 M, 35 specimens) was 0 (0) and the “Yolk-rich cell differentiated, specimens (%)” value (10^−4 M, 35 specimens) was 29 (83). For the same compound, the “Atypical epidermis differentiated, specimens (%)” value (10^−5 M, 35 specimens) was 0 (0), the “Cartilage differentiated, specimens (%)” value (10^−5 M, 35 specimens) was 3 (9) and the “Cement gland differentiated, specimens (%)” value (10^−5 M, 35 specimens) was 0 (0). For the same compound, the “Coelomic epithelium differentiated, specimens (%)” value (10^−5 M, 35 specimens) was 5 (14), the “Ear vesicle differentiated, specimens (%)” value (10^−5 M, 35 specimens) was 0 (0) and the “Epidermis differentiated, specimens (%)” value (10^−5 M, 35 specimens) was 13 (37). For the same compound, the “Eye or its fragments differentiated, specimens (%)” value (10^−5 M, 35 specimens) was 0 (0), the “Gastric gland differentiated, specimens (%)” value (10^−5 M, 35 specimens) was 9 (26) and the “Hemocyte differentiated, specimens (%)” value (10^−5 M, 35 specimens) was 0 (0). The “Intestinal epithelium differentiated, specimens (%)” value (10^−5 M, 35 specimens) was 33 (94), the “Mesenchyme differentiated, specimens (%)” value (10^−5 M, 35 specimens) was 20 (57) and the “Muscle differentiated, specimens (%)” value (10^−5 M, 35 specimens) was 4 (11). The “Neural tissue differentiated, specimens (%)” value (10^−5 M, 35 specimens) was 1 (3), the “Notochord differentiated, specimens (%)” value (10^−5 M, 35 specimens) was 25 (71) and the “Pancreas differentiated, specimens (%)” value (10^−5 M, 35 specimens) was 15 (43). For the same compound, the “Pharyngeal epithelium differentiated, specimens (%)” value (10^−5 M, 35 specimens) was 19 (54), the “Pronephros differentiated, specimens (%)” value (10^−5 M, 35 specimens) was 12 (34) and the “Yolk-rich cell differentiated, specimens (%)” value (10^−5 M, 35 specimens) was 30 (86). The “Atypical epidermis differentiated, specimens (%)” value (10^−6 M, 35 specimens) was 0 (0), the “Cartilage differentiated, specimens (%)” value (10^−6 M, 35 specimens) was 22 (63) and the “Cement gland differentiated, specimens (%)” value (10^−6 M, 35 specimens) was 0 (0). For the same compound, the “Coelomic epithelium differentiated, specimens (%)” value (10^−6 M, 35 specimens) was 12 (34), the “Ear vesicle differentiated, specimens (%)” value (10^−6 M, 35 specimens) was 0 (0) and the “Epidermis differentiated, specimens (%)” value (10^−6 M, 35 specimens) was 34 (97). For the same compound, the “Eye or its fragments differentiated, specimens (%)” value (10^−6 M, 35 specimens) was 0 (0), the “Gastric gland differentiated, specimens (%)” value (10^−6 M, 35 specimens) was 1 (3) and the “Hemocyte differentiated, specimens (%)” value (10^−6 M, 35 specimens) was 0 (0). For the same compound, the “Intestinal epithelium differentiated, specimens (%)” value (10^−6 M, 35 specimens) was 4 (11), the “Mesenchyme differentiated, specimens (%)” value (10^−6 M, 35 specimens) was 35 (100) and the “Muscle differentiated, specimens (%)” value (10^−6 M, 35 specimens) was 20 (57). The “Neural tissue differentiated, specimens (%)” value (10^−6 M, 35 specimens) was 15 (43), the “Notochord differentiated, specimens (%)” value (10^−6 M, 35 specimens) was 30 (86) and the “Pancreas differentiated, specimens (%)” value (10^−6 M, 35 specimens) was 1 (3). For the same compound, the “Pharyngeal epithelium differentiated, specimens (%)” value (10^−6 M, 35 specimens) was 34 (97), the “Pronephros differentiated, specimens (%)” value (10^−6 M, 35 specimens) was 0 (0) and the “Yolk-rich cell differentiated, specimens (%)” value (10^−6 M, 35 specimens) was 31 (89). For the same compound, the “Atypical epidermis differentiated, specimens (%)” value (10^−7 M, 32 specimens) was 0 (0), the “Cartilage differentiated, specimens (%)” value (10^−7 M, 32 specimens) was 16 (50) and the “Cement gland differentiated, specimens (%)” value (10^−7 M, 32 specimens) was 0 (0). The “Coelomic epithelium differentiated, specimens (%)” value (10^−7 M, 32 specimens) was 5 (16), the “Ear vesicle differentiated, specimens (%)” value (10^−7 M, 32 specimens) was 0 (0) and the “Epidermis differentiated, specimens (%)” value (10^−7 M, 32 specimens) was 31 (97). The “Eye or its fragments differentiated, specimens (%)” value (10^−7 M, 32 specimens) was 0 (0), the “Gastric gland differentiated, specimens (%)” value (10^−7 M, 32 specimens) was 0 (0) and the “Hemocyte differentiated, specimens (%)” value (10^−7 M, 32 specimens) was 0 (0). The “Intestinal epithelium differentiated, specimens (%)” value (10^−7 M, 32 specimens) was 1 (3), the “Mesenchyme differentiated, specimens (%)” value (10^−7 M, 32 specimens) was 32 (100) and the “Muscle differentiated, specimens (%)” value (10^−7 M, 32 specimens) was 24 (75). The “Neural tissue differentiated, specimens (%)” value (10^−7 M, 32 specimens) was 9 (28), the “Notochord differentiated, specimens (%)” value (10^−7 M, 32 specimens) was 31 (97) and the “Pancreas differentiated, specimens (%)” value (10^−7 M, 32 specimens) was 0 (0). For the same compound, the “Pharyngeal epithelium differentiated, specimens (%)” value (10^−7 M, 32 specimens) was 30 (94), the “Pronephros differentiated, specimens (%)” value (10^−7 M, 32 specimens) was 0 (0) and the “Yolk-rich cell differentiated, specimens (%)” value (10^−7 M, 32 specimens) was 24 (75). The “Atypical epidermis differentiated, specimens (%)” value (10^−8 M, 20 specimens) was 0 (0), the “Cartilage differentiated, specimens (%)” value (10^−8 M, 20 specimens) was 5 (25) and the “Cement gland differentiated, specimens (%)” value (10^−8 M, 20 specimens) was 0 (0). The “Coelomic epithelium differentiated, specimens (%)” value (10^−8 M, 20 specimens) was 3 (15), the “Ear vesicle differentiated, specimens (%)” value (10^−8 M, 20 specimens) was 0 (0) and the “Epidermis differentiated, specimens (%)” value (10^−8 M, 20 specimens) was 20 (100). The “Eye or its fragments differentiated, specimens (%)” value (10^−8 M, 20 specimens) was 0 (0), the “Gastric gland differentiated, specimens (%)” value (10^−8 M, 20 specimens) was 0 (0) and the “Hemocyte differentiated, specimens (%)” value (10^−8 M, 20 specimens) was 0 (0). For the same compound, the “Intestinal epithelium differentiated, specimens (%)” value (10^−8 M, 20 specimens) was 0 (0), the “Mesenchyme differentiated, specimens (%)” value (10^−8 M, 20 specimens) was 20 (100) and the “Muscle differentiated, specimens (%)” value (10^−8 M, 20 specimens) was 17 (85). The “Neural tissue differentiated, specimens (%)” value (10^−8 M, 20 specimens) was 2 (10), the “Notochord differentiated, specimens (%)” value (10^−8 M, 20 specimens) was 18 (90) and the “Pancreas differentiated, specimens (%)” value (10^−8 M, 20 specimens) was 2 (10). The “Pharyngeal epithelium differentiated, specimens (%)” value (10^−8 M, 20 specimens) was 17 (85), the “Pronephros differentiated, specimens (%)” value (10^−8 M, 20 specimens) was 0 (0) and the “Yolk-rich cell differentiated, specimens (%)” value (10^−8 M, 20 specimens) was 16 (80).
